Results published in patent US20240425454A1, “IONIZABLE CATIONIC COMPOUND” (SEQIRUS INC., priority 2021, published 2024).

Assay: TNS fluorescence pKa protocol on saRNA-LNP
Format: physicochemical
Conditions: saRNA-LNP containing the lipid, in a series of buffers; saRNA-LNP with the lipid; TNS 6 μM, pH 4 to 9.5, 25° C.; read-out: Apparent pKa
Protocol: In a black 96-well plate, solutions of saRNA-LNP (final assay concentration 2 μg/mL total RNA) in a series of buffers ranging from pH 4 to 9.5 were prepared. Buffers between pH 4 to 7.6 were prepared from disodium phosphate and citric acid. Buffers from 7.8 to 9.5 were prepared by titrating tris buffer with 10 N sodium hydroxide. To each well was added 6-(p-Toluidino)-2-naphthalenesulfonic acid sodium salt (TNS) in water to a final assay concentration of 6 μM. The fluorescence was read on a plate reader at 25° C. with an excitation setting of 321 nm and an emission setting of 445 nm. The intensity values were plotted as a function of pH using GraphPad Prism and were fit with a sigmoidal dose response curve. The apparent pKa was determined as the EC50 of this curve where half of the ionizable amines are expected to be protonated (see FIG. 1).
In the case of `CCCCC(CCCC)OC(=O)CCCCCCCCC(CCCCCCCCC(=O)OC(CCCC)CCCC)OC(=O)CSCCN(C)C` [SL10], the pKa is reported as 5.8. `CCCCC(CCCC)OC(=O)CCCCCCCCC(CCCCCCCCC(=O)OC(CCCC)CCCC)OC(=O)CSC1CCN(C)CC1` [SL07] showed a pKa of 6.1. With `CCCCC(CCCC)OC(=O)CCCCCCCCC(CCCCCCCCC(=O)OC(CCCC)CCCC)OC(=O)COCCN(C)C` [SL08] the pKa was 7. `CCCCC(CCCC)OC(=O)CCCCCCCCC(CCCCCCCCC(=O)OC(CCCC)CCCC)OC(=O)COC1CCN(CCCO)CC1` [SL12] gave a pKa of 6.9. Molecule `CCCCC(CCCC)OC(=O)CCCCCCCCC(CCCCCCCCC(=O)OC(CCCC)CCCC)OC(=O)CSCCN(CC)CC` [SL11] has a pKa of 5.6. With `CCCCC(CCCC)OC(=O)CCCCCCCCC(CCCCCCCCC(=O)OC(CCCC)CCCC)OC(=O)COC1CCN(C)CC1` [SL06] the pKa was 7.1. In the case of `CCCCC(CCCC)OC(=O)CCCCCCCCC(CCCCCCCCC(=O)OC(CCCC)CCCC)OC(=O)COCCCN(C)C` [SL09], the pKa is reported as 7.1.
